Common to all, as to assay: Bliss interaction score (quartile over a dose matrix) (fitness difference); higher = more antagonism (negative = synergy)
The test system of one assay is B. subtilis 168. In outline:
(§1)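 Fitness was derived from optical density at entry into stationary phase, divided by the robust mean of the no-drug wells on the same plate. That reading was taken as OD595, and the ratio was capped at 1. Single-drug fitness was inferred from the combination data. The Bliss score, observed fitness minus the expected product of single-drug fitness, was summarised as quartiles over technical, biological and donor/recipient replicates.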

Another assay relates to S. aureus DSM 20231. The method in brief:
as §1

The test system of the next assay is S. aureus Newman. The method in brief:
as §1

The next assay concerns S. pneumoniae D39V. The method in brief: as §1
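Note: first quartile when negative (synergy) and third quartile when positive (antagonism).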

Take `CC(=O)Oc1ccccc1C(=O)O` [Acetylsalicylicacid] + CC1(C)S[C@@H]2[C@H](NC(=O)Cc3ccccc3)C(=O)N2[C@H]1C(=O)O [PenicillinG]: the Bliss interaction score in the assay on B. subtilis 168 was 0.117; with S. aureus DSM 20231, 0.101; with S. aureus Newman, 0.0702; with S. pneumoniae D39V it was -0.0595.
For `CC(=O)Oc1ccccc1C(=O)O` [Acetylsalicylicacid] + CC1(C)S[C@@H]2[C@H](NC(=O)[C@H](N)c3ccc(O)cc3)C(=O)N2[C@H]1C(=O)O [Amoxicillin] the same measures were 0.192, 0.078, -0.0753 and 0.0431.
As for `CC(=O)Oc1ccccc1C(=O)O` [Acetylsalicylicacid] + CC1=C(C(=O)O)N2C(=O)[C@@H](NC(=O)[C@H](N)c3ccccc3)[C@H]2SC1 [Cephalexin], the Bliss interaction score with B. subtilis 168 is 0.108; with S. aureus DSM 20231, 0.0849; in the assay with S. aureus Newman, 0.0494; in the assay with S. pneumoniae D39V, 0.241.
For `CC(=O)Oc1ccccc1C(=O)O` [Acetylsalicylicacid] + CC1=C\[C@@H](O)CC(=O)Cc2nc(co2)C(=O)N2CCC=C2C(=O)O[C@H](C(C)C)[C@H](C)/C=C/C(=O)NC\C=C\1 [Virginiamycin M1], in that order: -0.0602, -0.0657, -0.0537 and -0.0556.
For `CC(=O)Oc1ccccc1C(=O)O` [Acetylsalicylicacid] + CC(=O)NC[C@H]1CN(c2ccc(N3CCOCC3)c(F)c2)C(=O)O1 [Linezolid] the same measures were 0.0401, -0.0728, 0.0639 and 0.145.
For `CC(=O)Oc1ccccc1C(=O)O` [Acetylsalicylicacid] + CC(=O)O[C@H]1C[C@@]2(C)[C@@H](C[C@@H](O)[C@H]3[C@@]4(C)CC[C@@H](O)[C@@H](C)[C@@H]4CC[C@@]32C)/C1=C(\CCC=C(C)C)C(=O)O [Fusidic acid], in that order: -0.0821, 0.0354, -0.0211 and 0.0675.
For the molecule `CC(=O)Oc1ccccc1C(=O)O` [Acetylsalicylicacid] + CC(C1CCC(C(O1)OC2C(CC(C(C2O)OC3C(C(C(CO3)(C)O)NC)O)N)N)N)NC [Gentamicin], the Bliss interaction score is 0.286 in the assay on B. subtilis 168 (main component drawn), 0.165 in the assay on S. aureus DSM 20231 (main component drawn), 0.0614 with S. aureus Newman (main component drawn) and 0.0535 in the assay on S. pneumoniae D39V (main component drawn).
For `CC(=O)Oc1ccccc1C(=O)O` [Acetylsalicylicacid] + CCC(C)C1C(=O)NC(=C)C(=O)NC(C(=O)NC(CSCC(C(=O)N1)NC(=O)/C(=C/C)/NC(=O)C(C(C)CC)N)C(=O)NC2C(SCC(NC(=O)CNC(=O)C3CCCN3C2=O)C(=O)NC(CCCCN)C(=O)NC4C(SCC(NC(=O)CNC(=O)C(NC(=O)C(NC(=O)C(NC(=O)CNC4=O)C)CC(C)C)CCSC)C(=O)NC(CC(=O)N)C(=O)NC(CCSC)C(=O)NC(CCCCN)C(=O)NC5C(SCC6C(=O)NC(C(=O)NC(CSC(C(C(=O)N6)NC(=O)C(NC5=O)C)C)C(=O)NC(CO)C(=O)NC(C(C)CC)C(=O)NC(CC7=CN=CN7)C(=O)NC(C(C)C)C(=O)NC(=C)C(=O)NC(CCCCN)C(=O)O)CC8=CN=CN8)C)C)C)CC(C)C [Nisin] the same measures were -0.0969, -0.113, -0.0598 and -0.0424.
As for `CC(=O)Oc1ccccc1C(=O)O` [Acetylsalicylicacid] + CCCCCCCCCC(=O)N[C@@H]1[C@H]([C@@H]([C@H](O[C@H]1OC2=C3C=C4C=C2OC5=C(C=C(C=C5)[C@H]([C@H]6C(=O)N[C@@H](C7=C(C(=CC(=C7)O)OC8[C@H]([C@H]([C@@H]([C@H](O8)CO)O)O)O)C9=C(C=CC(=C9)[C@H](C(=O)N6)NC(=O)[C@@H]4NC(=O)[C@@H]1C2=CC(=CC(=C2)OC2=C(C=CC(=C2)[C@H](C(=O)N[C@H](CC2=CC(=C(O3)C=C2)Cl)C(=O)N1)N)O)O)O)C(=O)O)O[C@H]1[C@@H]([C@H]([C@@H]([C@H](O1)CO)O)O)NC(=O)C)Cl)CO)O)O [Teicoplanin], the Bliss interaction score in the assay on B. subtilis 168 (main component drawn) was 0.206; in the assay with S. aureus DSM 20231 (main component drawn), 0.0851; in the assay on S. aureus Newman (main component drawn), -0.0656; in the assay on S. pneumoniae D39V (main component drawn), -0.045.
On to `CC(=O)Oc1ccccc1C(=O)O` [Acetylsalicylicacid] + CCC[C@@H]1C[C@@H](C(=O)N[C@@H]([C@H]2O[C@H](SC)[C@H](O)[C@@H](O)[C@H]2O)[C@@H](C)O)N(C)C1 [Lincomycin], for which the Bliss interaction score in the assay with B. subtilis 168 was -0.0832; with S. aureus DSM 20231, 0.199; in the assay with S. aureus Newman, 0.0556; in the assay on S. pneumoniae D39V it was 0.0801.
For `CC(=O)Oc1ccccc1C(=O)O` [Acetylsalicylicacid] + CCC[C@@H]1C[C@@H](C(=O)N[C@@H]([C@H]2O[C@H](SC)[C@H](O)[C@@H](O)[C@H]2O)[C@H](C)Cl)N(C)C1 [Clindamycin] the same measures were 0.0404, 0.0574, 0.0829 and -0.105.
For `CC(=O)Oc1ccccc1C(=O)O` [Acetylsalicylicacid] + CCN(CC)CCOC(=O)c1ccc(N)cc1 [Procaine], in that order: 0.0531, 0.0998, -0.0687 and 0.0662.
For `CC(=O)Oc1ccccc1C(=O)O` [Acetylsalicylicacid] + CCP(CC)CC.CC(=O)OC[C@@H]1[C@H]([C@@H]([C@H]([C@@H](O1)[S-])OC(=O)C)OC(=O)C)OC(=O)C.[Au+] [Auranofin] the same measures were 0.0526, -0.0726, 0.0597 and 0.0631.
Regarding `CC(=O)Oc1ccccc1C(=O)O` [Acetylsalicylicacid] + CC[C@H]1OC(=O)[C@H](C)C(=O)[C@H](C)[C@@H](O[C@@H]2O[C@H](C)C[C@H](N(C)C)[C@H]2O)[C@](C)(OC)C[C@@H](C)C(=O)[C@H](C)[C@H]2N(CCCCn3cnc(-c4cccnc4)c3)C(=O)O[C@]12C [Telithromycin], the Bliss interaction score in the assay with B. subtilis 168 is 0.205; with S. aureus DSM 20231, 0.0695; with S. aureus Newman, 0.0539; in the assay with S. pneumoniae D39V, -0.043.
For `CC(=O)Oc1ccccc1C(=O)O` [Acetylsalicylicacid] + CC[C@H]1OC(=O)[C@H](C)[C@@H](O[C@H]2C[C@@](C)(OC)[C@@H](O)[C@H](C)O2)[C@H](C)[C@@H](O[C@@H]2O[C@H](C)C[C@H](N(C)C)[C@H]2O)[C@](C)(O)C[C@@H](C)C(=O)[C@H](C)[C@@H](O)[C@]1(C)O [Erythromycin], in that order: 0.184, 0.1, 0.144 and 0.0745.
For `CC(=O)Oc1ccccc1C(=O)O` [Acetylsalicylicacid] + CC[C@H]1OC(=O)[C@H](C)[C@@H](O[C@H]2C[C@@](C)(OC)[C@@H](O)[C@H](C)O2)[C@H](C)[C@@H](O[C@@H]2O[C@H](C)C[C@H](N(C)C)[C@H]2O)[C@](C)(O)C[C@@H](C)CN(C)[C@H](C)[C@@H](O)[C@]1(C)O [Azithromycin] the same measures were 0.153, 0.179, 0.105 and 0.0486.

The values are drawn from the supplement of paper PMC10627819.
